Where “and” joins values, the source holds several entries; their conditions need not be identical. Identical values can stand only once.
Columns and labels:
[1] = Fluorescence spectroscopic study of mycotoxin-SBECD complex formation; type: binding; conditions: for SBECD logK ± SEM (binding constant): Benesi–Hildebrand, 0.05 M sodium acetate pH 5.0, mycotoxin 1 μM, n = 3; for SBECD-induced increase in the emission signal of the mycotoxin: SBECD 0–10 mM, mycotoxin 1 μM, sodium acetate pH 5.0
Method: (§1) The impacts of SBECD (0–10 mM) and SGD (0–5 mM) on the emission signals of mycotoxins (1 μM each) were tested in sodium acetate buffer (0.05 M, pH 5.0). Mycotoxin–CD interactions were evaluated using the Benesi–Hildebrand equation [11, 31], assuming 1:1 stoichiometry of complex formation:(2) F0/F−F0=1/A+1/A×K×[CD] where K (L/mol) is the binding constant, F0 is the emission signal of the mycotoxin without the host molecules, F is the emission signal of the mycotoxin with CDs, A is a constant, and [CD] is the molar concentration (mol/L) of the host molecules.
(§2) Therefore, CD-induced elevation in the fluorescence emission intensities of mycotoxins was examined.
(§3) Based on the emission signals at 455 nm, the binding constants of ligand–CD complexes were calculated using the Benesi–Hildebrand equation (Equation (2)). Background corrections were performed in each experiment. […] Glucose and glucuronic acid are bulky, hydrophilic molecules; therefore, it is reasonable to hypothesize that these substituents make the inclusion of AG, AMG, and Z14Glr by the apolar CD cavity difficult.

[2] = biological target: T1, human serum albumin (HSA) (Homo sapiens, UniProt P02768); experiment: Fluorescence quenching of human serum albumin by mycotoxins; type: binding; conditions: for HSA logKSV ± SEM (Stern–Volmer quenching constant): PBS pH 7.4, 25 °C, albumin 2 μM, mycotoxin 0–5 μM, n = 3; for Kd: fluorescence quenching, HyperQuad fitting, PBS pH 7.4, n = 3, read-out: HSA logK ± SEM (binding constant) (converted)
T1 construct: purchased Merck (Darmstadt, Germany)
Method: (§4) Fluorescence emission spectra were collected at 25 °C using a Hitachi F-4500 fluorescence spectrophotometer (Tokyo, Japan). The quenching effects of AG, AMG, and Z14Glr (each 0–5 μM) on the emission signals of albumins (2 μM each) were examined at 340 nm in phosphate-buffered saline (PBS, pH 7.4). UV–vis measurements were performed at 25 °C in PBS, employing a Jasco V730 UV–vis spectrophotometer (Tokyo, Japan). Thereafter, we corrected the inner-filter effects of the mycotoxins, as previously reported. Stern–Volmer quenching constants (KSV; L/mol) were calculated with the graphical application of the Stern–Volmer equation [11, 29]:(1) I0/I=1+KSV×Q where I0 and I are the emission intensities of the protein without and with the quencher, respectively, while [Q] is the concentration (mol/L) of the quencher (mycotoxin). The binding constants (K; L/mol) of mycotoxin–albumin complexes were determined with nonlinear fitting, using the HyperQuad2006 software (version 3.1; Protonic Software GmbH, Hanau, Germany), as described previously.
(§5) The interaction of a ligand molecule with albumin usually induces a decrease in the emission signal of the protein [33]; therefore, fluorescence quenching studies were performed. In PBS (pH 7.4), increasing amounts of AG, AMG, and Z14Glr were added to standard concentrations of human (HSA), bovine (BSA), porcine (PSA), or rat (RSA) serum albumins, after which the emission spectra were recorded.
(§6) The KSV and K values of mycotoxin–albumin complexes were determined using the Stern–Volmer equation (Equation (1)) and the HyperQuad2006 software (see data in Table 1 and Table 2, respectively). […] The logKSV and logK values of the mycotoxin–albumin complexes were in good agreement (Table 1 and Table 2).

rat serum albumin (RSA) = biological target: T2, rat serum albumin (RSA) (Rattus norvegicus, UniProt P02770); experiment: Fluorescence quenching of rat serum albumin by mycotoxins; type: binding; conditions: for RSA logKSV ± SEM (Stern–Volmer quenching constant): PBS pH 7.4, 25 °C, albumin 2 μM, mycotoxin 0–5 μM, n = 3; for Kd: fluorescence quenching, HyperQuad fitting, PBS pH 7.4, n = 3, read-out: RSA logK ± SEM (binding constant) (converted)
T2 construct: purchased Merck (Darmstadt, Germany)
Method: as §4, §5, §6

[3] = system: serum albumins (HSA, BSA, PSA, RSA); experiment: Fluorescence quenching, summary over the tested albumins; type: binding, human, bovine, porcine, rat; conditions: PBS pH 7.4, approximate over the albumins tested
Method: as §4, §6

[4] = Fluorescence spectroscopic study of mycotoxin-SGD complex formation; type: binding; conditions: for SGD logK ± SEM (binding constant): Benesi–Hildebrand, 0.05 M sodium acetate pH 5.0, mycotoxin 1 μM, n = 3; for SGD-induced increase in the emission signal of the mycotoxin: SGD 0–5 mM, mycotoxin 1 μM, sodium acetate pH 5.0
Method: as §1, §2, §3

[5] = biological target: T3, bovine serum albumin (BSA) (Bos taurus, UniProt P02769); experiment: Fluorescence quenching of bovine serum albumin by mycotoxins; type: binding; conditions: for BSA logKSV ± SEM (Stern–Volmer quenching constant): PBS pH 7.4, 25 °C, albumin 2 μM, mycotoxin 0–5 μM, n = 3; for Kd: fluorescence quenching, HyperQuad fitting, PBS pH 7.4, n = 3, read-out: BSA logK ± SEM (binding constant) (converted)
T3 construct: purchased Merck (Darmstadt, Germany)
Method: as §4, §5, §6

[6] = biological target: T1, human serum albumin (HSA); experiment: Ultracentrifugation study of mycotoxin-HSA binding
Method: To confirm the data calculated based on fluorescence quenching studies, ultracentrifugation experiments were also performed. With the proper conditions of ultracentrifugation, albumin (with the bound ligands) can be sedimented. The samples (final volume: 500 μL) contained AG, AMG, or Z14Glr (5 μM each) with HSA (60 or 180 μM) dissolved in PBS. Centrifugation (16 h, 170,000× g, 20 °C) was performed using 11 × 34 mm PC tubes (Beckman Coulter, Brea, CA, US) and a Beckman Coulter Optima MAX-XP tabletop ultracentrifuge (fixed-angle rotor). The unbound fractions of mycotoxins were determined in the protein-free supernatant by HPLC-FLD (see details in Section 2.5), as previously reported. (3) K=[LA]/L×[A] where [L], [A], and [LA] are the concentrations (mol/L) of the ligand (unbound), albumin (unbound), and the ligand–albumin complex, respectively.
Furthermore, to test the impact of environmental pH on the stability of mycotoxin–albumin complexes, the abovementioned experiments were also performed in 0.05 M sodium acetate (pH 5.0) and 0.05 M sodium borate (pH 8.5) buffers.
To confirm the binding constants determined in the quenching experiments, and to get insight into the interaction of Z14Glr with HSA, ultracentrifugation studies were also performed. In these investigations, albumins (with the ligands bound) were sedimented, and then the concentrations of the unbound mycotoxins were quantified from the supernatants.

[7] = Extraction of mycotoxins from aqueous solutions with γ-cyclodextrin bead polymer; conditions: GBP 0–10 mg/mL, mycotoxin 5 μM, sodium acetate buffer pH 5.0
Method: (§7) The extraction of mycotoxins by insoluble (but water-swellable) CD bead polymers was tested in 0.05 M sodium acetate (pH 5.0) and 0.05 M sodium borate (pH 10.0) buffers. AG, AMG, alternariol, Z14Glr, and zearalenone solutions (5 μM each) were incubated with increasing amounts (0–10 mg/mL) of BBP or GBP in a thermomixer for 40 min at 1000 rpm and 25 °C. After pulse centrifugation (5000× g, 3 s), the mycotoxin contents of the supernatants were analyzed by HPLC-FLD (see Section 2.5).
(§8) The quantitative analyses of the examined mycotoxins were performed with a Jasco HPLC system (Tokyo, Japan) equipped with a binary pump (PU-4180), an autosampler (AS 4050), and a fluorescence detector (FP-920). Chromatograms were evaluated using the ChromNAV2 software (Jasco). Alternariol and zearalenone were analyzed as described previously. During the validation of our new HPLC-FLD methods, the linearity (LIN), limit of detection (LOD), limit of quantification (LOQ), and intraday repeatability (IDR) were determined as described previously.
AG and AMG were quantified using the following method: Isocratic elution of the samples (20 μL) was performed at room temperature with a 1 mL/min flow rate, employing phosphoric acid (1 mM) and acetonitrile (65:35 v/v%) as the mobile phase, where a Security Guard (C18, 4.0 × 3.0 mm; Phenomenex, Torrance, CA, US) precolumn was linked to a Kinetex EVO C18 (250 × 4.6 mm, 5 μm; Phenomenex) analytical column. Chromatograms were recorded, applying 335 nm and 455 nm excitation and emission wavelengths, respectively. […]
Z14Glr was quantified using the following method: Isocratic elution of the samples (20 μL) was performed at room temperature with a 1 mL/min flow rate, employing 1% acetic acid solution and acetonitrile (65:35 v/v%) as the mobile phase, where a Security Guard (C8, 4.0 × 3.0 mm; Phenomenex) precolumn was linked to a Mediterranea See8 (C8, 150 × 4.6 mm, 5 μm; Teknokroma, Barcelona, Spain) analytical column. Chromatograms were recorded, applying 315 nm and 465 nm excitation and emission wavelengths, respectively. […]

[8] = biological target: T4, porcine serum albumin (PSA) (Sus scrofa, UniProt P08835); experiment: Fluorescence quenching of porcine serum albumin by mycotoxins; type: binding; conditions: for PSA logKSV ± SEM (Stern–Volmer quenching constant): PBS pH 7.4, 25 °C, albumin 2 μM, mycotoxin 0–5 μM, n = 3; for Kd: fluorescence quenching, HyperQuad fitting, PBS pH 7.4, n = 3, read-out: PSA logK ± SEM (binding constant) (converted)
T4 construct: purchased Merck (Darmstadt, Germany)
Method: as §4, §5, §6

[9] = Extraction of mycotoxins from aqueous solutions with β-cyclodextrin bead polymer; conditions: for decrease in mycotoxin concentration (extraction) by BBP: BBP 10 mg/mL, mycotoxin 5 μM, sodium acetate buffer pH 5.0, 40 min, 25 °C; for removal of mycotoxin by BBP at pH 10.0 compared with pH 5.0: sodium borate pH 10.0 vs sodium acetate pH 5.0, mycotoxin 5 μM
Method: as §7, §8
AG and AMG were quantified using the following method: Isocratic elution of the samples (20 μL) was performed at room temperature with a 1 mL/min flow rate, employing phosphoric acid (1 mM) and acetonitrile (65:35 v/v%) as the mobile phase, where a Security Guard (C18, 4.0 × 3.0 mm; Phenomenex, Torrance, CA, US) precolumn was linked to a Kinetex EVO C18 (250 × 4.6 mm, 5 μm; Phenomenex) analytical column. Chromatograms were recorded, applying 335 nm and 455 nm excitation and emission wavelengths, respectively. The method validation parameters were as follows: AG (LIN: 0.2–5.0 μM, R^2 = 0.999; LOD = 0.05 μM; LOQ = 0.18 μM; IDR = 1.3%, n = 7); AMG (LIN: 0.2–5.0 μM, R^2 = 0.997; LOD = 0.15 μM; LOQ = 0.50 μM; IDR = 2.3%, n = 7).
Z14Glr was quantified using the following method: Isocratic elution of the samples (20 μL) was performed at room temperature with a 1 mL/min flow rate, employing 1% acetic acid solution and acetonitrile (65:35 v/v%) as the mobile phase, where a Security Guard (C8, 4.0 × 3.0 mm; Phenomenex) precolumn was linked to a Mediterranea See8 (C8, 150 × 4.6 mm, 5 μm; Teknokroma, Barcelona, Spain) analytical column. Chromatograms were recorded, applying 315 nm and 465 nm excitation and emission wavelengths, respectively. The method validation parameters for the HPLC analysis of Z14Glr were also determined (LIN: 0.2–5.0 μM, R^2 = 0.999; LOD = 0.15 μM; LOQ = 0.50 μM; IDR = 2.0%, n = 7).

[10] = 0.05 M sodium acetate pH 5.0, mycotoxin 5 μM, n = 3, read-out: HSA pH 5.0 logK ± SEM (binding constant) (converted)
[11] = 0.05 M sodium borate pH 8.5, mycotoxin 5 μM, n = 3, read-out: HSA pH 8.5 logK ± SEM (binding constant) (converted)
[12] = PBS pH 7.4, mycotoxin 5 μM, n = 3, read-out: HSA pH 7.4 logK ± SEM (binding constant) (converted)

T4 sequence (P08835 25-607): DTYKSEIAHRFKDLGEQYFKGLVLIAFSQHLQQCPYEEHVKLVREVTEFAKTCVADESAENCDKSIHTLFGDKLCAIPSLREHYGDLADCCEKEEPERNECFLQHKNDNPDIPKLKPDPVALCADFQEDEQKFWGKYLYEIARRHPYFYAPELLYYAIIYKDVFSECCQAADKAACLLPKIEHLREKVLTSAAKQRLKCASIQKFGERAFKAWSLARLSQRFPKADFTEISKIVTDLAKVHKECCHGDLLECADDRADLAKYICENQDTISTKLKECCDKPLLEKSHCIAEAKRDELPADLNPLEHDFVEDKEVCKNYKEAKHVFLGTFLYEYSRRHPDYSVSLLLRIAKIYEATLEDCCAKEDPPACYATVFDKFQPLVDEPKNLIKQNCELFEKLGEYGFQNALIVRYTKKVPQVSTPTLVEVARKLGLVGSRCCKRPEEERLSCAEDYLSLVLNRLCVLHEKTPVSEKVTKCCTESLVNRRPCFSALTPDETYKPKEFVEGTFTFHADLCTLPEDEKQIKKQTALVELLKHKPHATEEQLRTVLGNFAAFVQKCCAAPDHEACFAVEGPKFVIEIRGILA
T3 sequence (P02769 25-607): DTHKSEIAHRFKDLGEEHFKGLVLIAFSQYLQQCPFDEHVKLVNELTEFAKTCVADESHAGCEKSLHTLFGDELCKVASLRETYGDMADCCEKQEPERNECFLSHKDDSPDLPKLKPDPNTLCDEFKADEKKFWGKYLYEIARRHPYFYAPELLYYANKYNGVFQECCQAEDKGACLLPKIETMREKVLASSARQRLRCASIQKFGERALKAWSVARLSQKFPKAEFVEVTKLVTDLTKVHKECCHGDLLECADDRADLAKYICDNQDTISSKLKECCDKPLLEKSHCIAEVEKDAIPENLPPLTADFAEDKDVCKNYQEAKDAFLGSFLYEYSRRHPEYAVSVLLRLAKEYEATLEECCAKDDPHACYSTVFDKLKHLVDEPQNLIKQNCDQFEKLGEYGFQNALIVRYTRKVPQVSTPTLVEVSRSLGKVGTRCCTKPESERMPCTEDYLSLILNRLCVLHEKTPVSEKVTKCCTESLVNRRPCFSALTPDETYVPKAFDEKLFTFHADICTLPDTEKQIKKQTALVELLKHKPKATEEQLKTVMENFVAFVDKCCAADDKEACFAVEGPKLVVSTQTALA
T2 sequence (P02770 25-608): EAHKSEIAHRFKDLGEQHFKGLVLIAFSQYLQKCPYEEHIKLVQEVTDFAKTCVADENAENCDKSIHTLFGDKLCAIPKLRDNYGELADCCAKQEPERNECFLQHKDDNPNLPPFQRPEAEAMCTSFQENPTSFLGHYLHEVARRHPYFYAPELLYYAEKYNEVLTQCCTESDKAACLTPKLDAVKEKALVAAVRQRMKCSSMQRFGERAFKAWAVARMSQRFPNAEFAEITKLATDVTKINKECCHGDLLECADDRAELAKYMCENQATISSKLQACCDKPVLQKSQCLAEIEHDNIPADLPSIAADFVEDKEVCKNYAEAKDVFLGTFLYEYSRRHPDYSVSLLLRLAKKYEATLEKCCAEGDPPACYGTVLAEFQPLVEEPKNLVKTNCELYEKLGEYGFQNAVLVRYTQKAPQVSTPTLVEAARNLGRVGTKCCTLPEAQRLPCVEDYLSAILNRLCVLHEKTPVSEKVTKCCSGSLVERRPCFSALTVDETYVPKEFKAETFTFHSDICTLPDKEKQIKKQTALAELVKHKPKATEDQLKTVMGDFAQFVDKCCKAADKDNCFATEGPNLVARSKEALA
T1 sequence (P02768 25-609): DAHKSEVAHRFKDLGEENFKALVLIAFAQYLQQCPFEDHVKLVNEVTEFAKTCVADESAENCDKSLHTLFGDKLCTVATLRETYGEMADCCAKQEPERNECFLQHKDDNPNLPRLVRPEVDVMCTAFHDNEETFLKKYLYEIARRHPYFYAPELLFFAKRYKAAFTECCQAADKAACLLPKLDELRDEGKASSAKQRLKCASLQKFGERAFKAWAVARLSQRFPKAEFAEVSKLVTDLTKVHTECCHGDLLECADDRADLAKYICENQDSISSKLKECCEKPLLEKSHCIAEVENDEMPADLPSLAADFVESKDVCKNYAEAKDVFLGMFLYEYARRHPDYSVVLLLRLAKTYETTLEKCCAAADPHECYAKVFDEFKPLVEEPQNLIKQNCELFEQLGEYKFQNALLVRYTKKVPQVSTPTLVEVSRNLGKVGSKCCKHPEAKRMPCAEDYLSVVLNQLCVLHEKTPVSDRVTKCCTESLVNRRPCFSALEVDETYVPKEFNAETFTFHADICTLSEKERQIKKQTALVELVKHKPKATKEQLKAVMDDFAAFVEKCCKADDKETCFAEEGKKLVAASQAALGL

Row | SMILES | SBECD logK ± SEM (binding constant) [1] [L/mol] | SBECD-induced increase in the emission signal of the mycotoxin [1] | HSA logKSV ± SEM (Stern–Volmer quenching constant) [2] [L/mol] | Kd [2] [µM] | RSA logKSV ± SEM (Stern–Volmer quenching constant) (rat serum albumin (RSA)) [L/mol] | Kd (rat serum albumin (RSA)) [µM] | binding constant K of mycotoxin–albumin complexes [3] | SGD logK ± SEM (binding constant) [4] [L/mol] | SGD-induced increase in the emission signal of the mycotoxin [4] | BSA logKSV ± SEM (Stern–Volmer quenching constant) [5] [L/mol] | Kd [5] [µM] | Kd [6, 10] [µM] | Kd [6, 11] [µM] | Kd [6, 12] | removal of mycotoxin by GBP [7] | PSA logKSV ± SEM (Stern–Volmer quenching constant) [8] [L/mol] | Kd [8] [µM] | decrease in mycotoxin concentration (extraction) by BBP [9] | removal of mycotoxin by BBP at pH 10.0 compared with pH 5.0 [9] | affinity toward HSA at pH 8.5 relative to pH 5.0 [6]
1 | Cc1cc(OC2O[C@H](CO)[C@@H](O)[C@H](O)[C@H]2O)cc2oc(=O)c3c(O)cc(O)cc3c12 (stereo partly drawn) [AG, alternariol-3-glucoside] | 2.92 ± 0.05 | threefold elevation | 4.48 ± 0.08 | 30.2 | 4.49 ± 0.03 | 29.5 | ≈ 3 × 10^4 L/mol | 3.19 ± 0.08 | approximately sevenfold increase | 4.44 ± 0.04 | 34.7 | 33.1 | 39.8 | 57.5 µM | strongly reduced | 4.38 ± 0.03 | 37.2 | approximately 85% | significantly lower than at acidic pH | –
2 | COc1cc(O)c2c(=O)oc3cc(OC4O[C@H](CO)[C@@H](O)[C@H](O)[C@H]4O)cc(C)c3c2c1 (stereo partly drawn) [AMG, alternariol-9-monomethylether-3-glucoside] | 2.79 ± 0.08 | threefold elevation | 4.38 ± 0.05 | 39.8 | 4.62 ± 0.02 | 22.4 | ≈ 3 × 10^4 L/mol | 3.45 ± 0.04 | approximately sevenfold increase | 4.57 ± 0.02 | 25.7 | 151 | 8.91 | 79.4 µM and 77.6 µM | strongly reduced | 4.27 ± 0.03 | 51.3 | ~75% | did not show relevant pH dependence | approximately 17 fold

Reference: article PMC10059066, “Probing Serum Albumins and Cyclodextrins as Binders of the Mycotoxin Metabolites Alternariol-3-Glucoside, Alternariol-9-Monomethylether-3-Glucoside, and Zearalenone-14-Glucuronide” (Metabolites, 2023)
